Patent publication US8586591B2, “Aminopyrazine derivative and medicine” (Nippon Shinyaku Co., Ltd., priority 2009, dated 2013)
Structures can show the parent of a compound that is named as a salt.

What was measured:
JAK3 tyrosine kinase = target: T1, JAK3 tyrosine kinase (Homo sapiens, UniProt P52333); assay: Test 1: inhibitory activity to JAK3 tyrosine kinase (ELISA); type: biochemical; conditions: 25 μM ATP in substrate solution, 30° C. for 1 hour, n=2
T1 construct: purchased Carnabioscience Co
T1 sequence (P52333 1-1124): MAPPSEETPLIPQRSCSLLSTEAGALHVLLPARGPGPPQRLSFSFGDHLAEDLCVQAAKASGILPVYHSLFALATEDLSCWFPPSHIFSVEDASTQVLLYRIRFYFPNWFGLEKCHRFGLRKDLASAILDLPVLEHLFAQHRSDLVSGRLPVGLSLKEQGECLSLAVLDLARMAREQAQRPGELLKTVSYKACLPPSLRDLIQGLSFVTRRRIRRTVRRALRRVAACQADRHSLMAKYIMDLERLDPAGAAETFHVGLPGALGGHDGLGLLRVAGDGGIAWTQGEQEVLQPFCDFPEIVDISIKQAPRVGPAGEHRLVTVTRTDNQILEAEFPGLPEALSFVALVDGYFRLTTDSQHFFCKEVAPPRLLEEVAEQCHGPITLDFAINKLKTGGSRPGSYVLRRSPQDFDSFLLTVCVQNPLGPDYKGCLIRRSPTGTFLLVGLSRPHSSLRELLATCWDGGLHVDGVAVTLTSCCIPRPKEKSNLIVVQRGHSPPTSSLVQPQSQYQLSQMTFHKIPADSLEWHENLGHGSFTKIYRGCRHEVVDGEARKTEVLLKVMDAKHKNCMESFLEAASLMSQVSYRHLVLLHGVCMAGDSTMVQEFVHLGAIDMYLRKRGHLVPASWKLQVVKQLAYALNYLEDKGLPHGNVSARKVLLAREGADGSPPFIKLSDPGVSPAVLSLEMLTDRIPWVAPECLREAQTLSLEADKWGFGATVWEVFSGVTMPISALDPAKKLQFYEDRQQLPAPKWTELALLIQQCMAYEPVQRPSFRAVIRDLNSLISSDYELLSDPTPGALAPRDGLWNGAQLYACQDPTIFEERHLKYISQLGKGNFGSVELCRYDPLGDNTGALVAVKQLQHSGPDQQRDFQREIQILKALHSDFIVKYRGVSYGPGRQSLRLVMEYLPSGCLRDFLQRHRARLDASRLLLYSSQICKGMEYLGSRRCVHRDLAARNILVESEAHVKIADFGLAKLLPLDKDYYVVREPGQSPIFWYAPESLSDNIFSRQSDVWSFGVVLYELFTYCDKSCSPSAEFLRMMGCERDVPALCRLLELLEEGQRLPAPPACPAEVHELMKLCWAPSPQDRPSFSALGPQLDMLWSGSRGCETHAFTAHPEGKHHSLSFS
How it was run: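 ELISA of JAK3 kinase activity with absorbance read at 450 nm. Compounds were tested from DMSO dilution series at 100-fold the measurement concentrations (1000–0.01 μM), diluted up to 20 times in assay buffer, against a DMSO negative control. IC50 was estimated by non-linear regression of absorbance.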

JAK2 tyrosine kinase = target: T2, JAK2 tyrosine kinase (Homo sapiens, UniProt O60674); assay: Test 1: inhibitory activity to JAK2 tyrosine kinase (ELISA); type: biochemical; conditions: 25 μM ATP in substrate solution, 30° C. for 1 hour, n=2
T2 construct: purchased Carnabioscience Co
How it was run: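 Human JAK2 (diluted to 0.75 nM before addition) phosphorylated a biotinylated peptide on streptavidin plates for 1 h at 30 °C. The substrate mix held 625 nM peptide, 25 μM ATP and 25 mM MgCl2 in 15 mM Tris pH 7.5, 0.01% Tween-20 and 1 mM DTT. Phosphotyrosine was detected by HRP antibody/TMB at 450 nm, and IC50 was obtained by non-linear regression; duplicates were run.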

[1] = target: BaF3 cells into which JAK2 V617F gene was introduced (Homo sapiens, UniProt O60674, V617F, cells depend on it); assay: Test 2: growth inhibitory action against variant JAK2 expressed cells (MTT method); type: cell-based; conditions: incubation for 3 days, triplicate, read-out: concentration of the test material which inhibited 50% of the cell growth (IC50)
Method: Test 2: Growth inhibitory action against variant JAK2 expressed cells
BaF3 cells into which JAK2 V617F gene was introduced ([…]) were inoculated on a 96-well plate in an amount of 1×10^3 cells/well and allowed to stand in a CO2 incubator. Next day, the test material was added to the cells. The test material was serially diluted with DMSO to give 10 mM, 6 mM, 3 mM, 1 mM, 600 μM, 300 μM, 100 μM, 60 μM, 30 μM, or 10 μM solution. This was diluted 100 times with distilled water to give 100 μM, 60 μM, 30 μM, 10 μM, 6 μM, 3 μM, 1 μM, 600 nM, 300 nM, or 100 nM solution. This solution of test material was added to the well in an amount of 10 μl/well. As a negative control, 1% DMSO solution was added to the well in an amount of 10 μl/well. In the above operation, the final concentration of the test material became 10 μM, 6 μM, 3 μM, 1 μM, 600 nM, 300 nM, 100 nM, 60 nM, 30 nM, 10 nM, or 0 nM (0.1% DMSO solution). The addition of the test material solution to each well was made in triplicate.
After continuous incubation for 3 days, the viable count was determined by an MTT method. The MTT method was carried out as follows. First, 10 μl each of solution containing 5 mg/ml of MTT (3-(4,5-dimethylthiazol-2-yl)-2,5-diphenyltetrazolium bromide) was added to each well. The plate was allowed to stand in a CO2 incubator for 4 hours, and then 100 μl of 0.04N HCl/2-propanol solution was added to each well to stop the reaction. The generated MTT-formazan was dissolved well with a multi-channel pipette, and the absorbance at 595 nm was measured with reference to that at 655 nm (Thermo Co.; Multiskan FC). Non-linear regression analysis was made by means of a SAS system (SAS Institute Inc.), and the concentration (IC50) of the test material which inhibited 50% of the cell growth was estimated.

BaF3 cells into which JAK2 V617F gene was introduced, sequence (O60674 whole entry V617F): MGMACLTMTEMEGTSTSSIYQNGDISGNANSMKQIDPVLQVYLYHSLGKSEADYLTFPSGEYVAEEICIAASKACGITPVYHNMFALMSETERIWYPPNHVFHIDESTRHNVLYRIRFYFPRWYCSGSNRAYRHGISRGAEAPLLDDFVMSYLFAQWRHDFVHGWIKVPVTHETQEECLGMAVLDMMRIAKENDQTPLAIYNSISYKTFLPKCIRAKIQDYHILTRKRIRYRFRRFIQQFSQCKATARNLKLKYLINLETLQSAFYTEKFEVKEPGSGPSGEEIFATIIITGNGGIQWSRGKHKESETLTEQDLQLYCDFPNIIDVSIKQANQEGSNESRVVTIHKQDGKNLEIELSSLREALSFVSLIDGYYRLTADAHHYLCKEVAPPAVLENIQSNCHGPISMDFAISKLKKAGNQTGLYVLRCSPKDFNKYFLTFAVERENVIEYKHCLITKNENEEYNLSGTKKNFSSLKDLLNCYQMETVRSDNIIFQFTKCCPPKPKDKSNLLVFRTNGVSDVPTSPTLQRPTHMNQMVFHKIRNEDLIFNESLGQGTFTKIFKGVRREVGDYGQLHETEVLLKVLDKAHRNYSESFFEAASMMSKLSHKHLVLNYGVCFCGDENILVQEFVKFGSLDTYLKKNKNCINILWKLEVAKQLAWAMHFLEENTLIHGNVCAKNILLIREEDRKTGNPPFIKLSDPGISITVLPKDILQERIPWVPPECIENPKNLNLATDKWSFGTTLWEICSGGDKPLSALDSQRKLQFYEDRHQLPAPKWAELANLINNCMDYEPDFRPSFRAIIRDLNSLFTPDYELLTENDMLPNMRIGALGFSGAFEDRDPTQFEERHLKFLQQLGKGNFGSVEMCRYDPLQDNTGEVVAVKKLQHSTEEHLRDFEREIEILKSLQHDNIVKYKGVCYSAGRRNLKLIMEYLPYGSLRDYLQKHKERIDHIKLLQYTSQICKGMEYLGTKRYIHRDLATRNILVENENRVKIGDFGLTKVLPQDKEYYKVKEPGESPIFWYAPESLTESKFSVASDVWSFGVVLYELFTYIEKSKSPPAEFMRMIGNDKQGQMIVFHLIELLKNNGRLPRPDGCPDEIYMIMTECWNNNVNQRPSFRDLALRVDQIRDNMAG
T2 sequence (O60674 whole entry): as the sequence (O60674 whole entry V617F) above, with F617V counted along it

Q: With C[C@H](Nc1nc(Nc2cnccn2)cc(N2CCC(NS(C)(=O)=O)C2)n1)c1ccc(F)cc1 (stereo partly drawn) [Example 60, N-(1-{2-[(S)-1-(4-Fluorophenyl)ethylamino]-6-(pyrazin-2-ylamino)pyrimidin-4-yl}pyrrolidin-3-yl)methanesulfonamide hydrochloride] as the compound, how does the IC50 (JAK3 tyrosine kinase) read?
A: Its IC50 is 28 nM.

Q: And the IC50 (JAK2 tyrosine kinase)?
A: The IC50 was 0.71 nM.

Q: And the GI50 [1]?
A: Its GI50 is 80 nM.
